Legend:
[1] = system: Nakaseomyces glabratus; assay: Antifungal activity against Candida glabrata 20/I after 48 hrs by broth microdilution method; type: functional
[2] = Cytotoxicity against human A431 cells assessed as cell viability at 30 uM after 48 hrs by MTS assay relative to control; type: cell-based, A-431; conditions: read-out: Activity
[3] = system: Trichophyton mentagrophytes; assay: Antifungal activity against Trichophyton mentagrophytes 445 after 120 hrs by broth microdilution method; type: functional; conditions: Trichophyton mentagrophytes, 445, 120 h
[4] = Cytotoxicity against MDCK cells assessed as cell viability at 30 uM after 48 hrs by MTS assay relative to control; type: cell-based, Canis lupus familiaris; conditions: dog, read-out: Activity
[5] = system: Staphylococcus aureus; assay: Antibacterial activity against methicillin-resistant Staphylococcus aureus HK5996/08 after 48 hrs by broth microdilution method; type: functional; conditions: HK5996/08, 48 h
[6] = system: Trichosporon asahii; assay: Antifungal activity against Trichosporon asahii 1188 after 24 hrs by broth microdilution method; type: functional; conditions: Trichosporon asahii, 1188, 24 h
[7] = system: A-431; assay: Cytotoxicity against human A431 cells assessed as cell viability after 48 hrs by MTS assay; type: cell-based; conditions: A-431, 48 h
[8] = system: Klebsiella pneumoniae; assay: Antibacterial activity against Klebsiella pneumoniae HK11750/08 after 48 hrs by broth microdilution method; type: functional; conditions: HK11750/08, 48 h
[9] = system: Enterococcus sp.; assay: Antibacterial activity against Enterococcus sp. HK14365/08 after 48 hrs by broth microdilution method; type: functional; conditions: HK14365/08, 48 h
[10] = system: Lichtheimia corymbifera; assay: Antifungal activity against Absidia corymbifera 272 after 48 hrs by broth microdilution method; type: functional; conditions: Lichtheimia corymbifera, 272, 48 h
[11] = system: Trichophyton mentagrophytes; assay: Antifungal activity against Trichophyton mentagrophytes 445 after 72 hrs by broth microdilution method; type: functional; conditions: Trichophyton mentagrophytes, 445, 72 h
[12] = system: Staphylococcus aureus; assay: Antibacterial activity against Staphylococcus aureus ATCC 6538 after 48 hrs by broth microdilution method; type: functional; conditions: ATCC 6538, 48 h
[13] = system: Klebsiella pneumoniae; assay: Antibacterial activity against extended spectrum beta-lactamase producing Klebsiella pneumoniae HK14368/08 after 24 hrs by broth microdilution method; type: functional; conditions: HK14368/08, 24 h
[14] = system: Mycobacterium kansasii; assay: Antimycobacterial activity against Mycobacterium kansasii 6509/96 clinical isolate after 14 days by micromethod; type: functional; conditions: 6509/96, 336 h
[15] = system: Mycobacterium kansasii; assay: Antimycobacterial activity against Mycobacterium kansasii CNCTC My 235/80 after 21 days by micromethod; type: functional; conditions: CNCTC My 235/80, 504 h
[16] = system: Mycobacterium kansasii; assay: Antimycobacterial activity against Mycobacterium kansasii 6509/96 clinical isolate after 7 days by micromethod; type: functional; conditions: 6509/96, 168 h
[17] = system: Staphylococcus epidermidis; assay: Antibacterial activity against Staphylococcus epidermidis HK6996/08 after 48 hrs by broth microdilution method; type: functional; conditions: HK6996/08, 48 h
[18] = system: Pichia kudriavzevii; assay: Antifungal activity against Candida krusei E28 after 48 hrs by broth microdilution method; type: functional; conditions: E28, 48 h
[19] = system: Mycobacterium kansasii; assay: Antimycobacterial activity against Mycobacterium kansasii CNCTC My 235/80 after 14 days by micromethod; type: functional; conditions: CNCTC My 235/80, 336 h
[20] = system: Klebsiella pneumoniae; assay: Antibacterial activity against Klebsiella pneumoniae HK11750/08 after 24 hrs by broth microdilution method; type: functional; conditions: HK11750/08, 24 h
[21] = system: Mycobacterium kansasii; assay: Antimycobacterial activity against Mycobacterium kansasii CNCTC My 235/80 after 7 days by micromethod; type: functional; conditions: CNCTC My 235/80, 168 h
[22] = system: Mycobacterium avium; assay: Antimycobacterial activity against Mycobacterium avium CNCTC My 330/88 after 21 days by micromethod; type: functional; conditions: CNCTC My 330/88, 504 h
[23] = system: Staphylococcus aureus; assay: Antibacterial activity against methicillin-resistant Staphylococcus aureus HK5996/08 after 24 hrs by broth microdilution method; type: functional; conditions: HK5996/08, 24 h
[24] = system: Candida tropicalis; assay: Antifungal activity against Candida tropicalis 156 after 48 hrs by broth microdilution method; type: functional; conditions: Candida tropicalis, 156, 48 h
[25] = system: Pichia kudriavzevii; assay: Antifungal activity against Candida krusei E28 after 24 hrs by broth microdilution method; type: functional; conditions: E28, 24 h
[26] = system: Escherichia coli; assay: Antibacterial activity against Escherichia coli ATCC 8739 after 24 hrs by broth microdilution method; type: functional; conditions: ATCC 8739, 24 h
[27] = system: Mycobacterium tuberculosis; assay: Antimycobacterial activity against Mycobacterium tuberculosis CNCTC My 331/88 after 14 days by micromethod; type: functional; conditions: CNCTC My 331/88, 336 h
[28] = Cytotoxicity against human HuH7 cells assessed as cell viability at 30 uM after 48 hrs by MTS assay relative to control; type: cell-based, Huh-7; conditions: read-out: Activity
[29] = Cytotoxicity against human HepG2 cells assessed as cell viability at 30 uM after 48 hrs by MTS assay relative to control; type: cell-based; conditions: read-out: Activity
[30] = system: Mycobacterium kansasii; assay: Antimycobacterial activity against Mycobacterium kansasii 6509/96 clinical isolate after 21 days by micromethod; type: functional; conditions: 6509/96, 504 h
[31] = system: Nakaseomyces glabratus; assay: Antifungal activity against Candida glabrata 20/I after 24 hrs by broth microdilution method; type: functional
[32] = system: Candida albicans; assay: Antifungal activity against Candida albicans ATCC 44859 after 48 hrs by broth microdilution method; type: functional; conditions: ATCC 44859, 48 h
[33] = system: MDCK; assay: Cytotoxicity against MDCK cells assessed as cell viability after 48 hrs by MTS assay; type: cell-based; conditions: Canis lupus familiaris
[34] = system: HepG2; assay: Cytotoxicity against human HepG2 cells assessed as cell viability after 48 hrs by MTS assay; type: cell-based; conditions: HepG2, 48 h
[35] = system: Escherichia coli; assay: Antibacterial activity against Escherichia coli ATCC 8739 after 48 hrs by broth microdilution method; type: functional; conditions: ATCC 8739, 48 h
[36] = system: Klebsiella pneumoniae; assay: Antibacterial activity against extended spectrum beta-lactamase producing Klebsiella pneumoniae HK14368/08 after 48 hrs by broth microdilution method; type: functional; conditions: HK14368/08, 48 h
[37] = system: Staphylococcus aureus; assay: Antibacterial activity against Staphylococcus aureus ATCC 6538 after 24 hrs by broth microdilution method; type: functional; conditions: ATCC 6538, 24 h
[38] = system: Candida albicans; assay: Antifungal activity against Candida albicans ATCC 44859 after 24 hrs by broth microdilution method; type: functional; conditions: ATCC 44859, 24 h
[39] = system: Aspergillus fumigatus; assay: Antifungal activity against Aspergillus fumigatus 231 after 24 hrs by broth microdilution method; type: functional; conditions: Aspergillus fumigatus, 231, 24 h
[40] = system: Candida tropicalis; assay: Antifungal activity against Candida tropicalis 156 after 24 hrs by broth microdilution method; type: functional; conditions: Candida tropicalis, 156, 24 h
[41] = Selectivity index, ratio of IC50 for human HepG2 cells to MIC for Mycobacterium tuberculosis; type: toxicity; conditions: read-out: Selectivity Index
[42] = system: Pseudomonas aeruginosa; assay: Antibacterial activity against Pseudomonas aeruginosa ATCC 9027 after 24 hrs by broth microdilution method; type: functional; conditions: ATCC 9027, 24 h
[43] = system: Lichtheimia corymbifera; assay: Antifungal activity against Absidia corymbifera 272 after 24 hrs by broth microdilution method; type: functional; conditions: Lichtheimia corymbifera, 272, 24 h
[44] = system: Trichosporon asahii; assay: Antifungal activity against Trichosporon asahii 1188 after 48 hrs by broth microdilution method; type: functional; conditions: Trichosporon asahii, 1188, 48 h
[45] = system: Aspergillus fumigatus; assay: Antifungal activity against Aspergillus fumigatus 231 after 48 hrs by broth microdilution method; type: functional; conditions: Aspergillus fumigatus, 231, 48 h
[46] = system: Mycobacterium avium; assay: Antimycobacterial activity against Mycobacterium avium CNCTC My 330/88 after 14 days by micromethod; type: functional; conditions: CNCTC My 330/88, 336 h
[47] = system: Pseudomonas aeruginosa; assay: Antibacterial activity against Pseudomonas aeruginosa ATCC 9027 after 48 hrs by broth microdilution method; type: functional; conditions: ATCC 9027, 48 h
[48] = system: Mycobacterium tuberculosis; assay: Antimycobacterial activity against Mycobacterium tuberculosis CNCTC My 331/88 after 21 days by micromethod; type: functional; conditions: CNCTC My 331/88, 504 h
[49] = system: Enterococcus sp.; assay: Antibacterial activity against Enterococcus sp. HK14365/08 after 24 hrs by broth microdilution method; type: functional; conditions: HK14365/08, 24 h
[50] = system: Huh-7; assay: Cytotoxicity against human HuH7 cells assessed as cell viability after 48 hrs by MTS assay; type: cell-based; conditions: Huh-7, 48 h
[51] = system: Staphylococcus epidermidis; assay: Antibacterial activity against Staphylococcus epidermidis HK6996/08 after 24 hrs by broth microdilution method; type: functional; conditions: HK6996/08, 24 h

COc1ccc(CSc2nnc(-c3cc([N+](=O)[O-])cc([N+](=O)[O-])c3)o2)cc1
93%: viability at 48 h, 30 µM [2]
> 500 µM: MIC [1] | MIC [3] | MIC [5] | MIC [6] | MIC [8] | MIC [9] | MIC [10] | MIC [11] | MIC [12] | MIC [13] | MIC [17] | MIC [18] | MIC [20] | MIC [23] | MIC [24] | MIC [25] | MIC [26] | MIC [31] | MIC [32] | MIC [35] | MIC [36] | MIC [37] | MIC [38] | MIC [39] | MIC [40] | MIC [42] | MIC [43] | MIC [44] | MIC [45] | MIC [47] | MIC [49] | MIC [51]
0.125 µM: MIC [15] | MIC [16] | MIC [19] | MIC [21]
0.25 µM: MIC [14] | MIC [30]
> 30 µM: IC50 [7] | IC50 [33] | IC50 [34] | IC50 [50]
> 1000: selectivity ratio [41]
4 µM: MIC [22] | MIC [46]
119%: viability at 48 h, 30 µM [4]
0.06 µM: MIC [48]
118%: viability at 48 h, 30 µM [28]
126%: viability at 48 h, 30 µM [29]
0.03 µM: MIC [27]

O=[N+]([O-])c1cc(-n2nnnc2SCc2ccc(Cl)cc2)cc([N+](=O)[O-])c1
> 500 µM: MIC [1] | MIC [3] | MIC [6] | MIC [8] | MIC [9] | MIC [10] | MIC [11] | MIC [13] | MIC [18] | MIC [20] | MIC [24] | MIC [25] | MIC [26] | MIC [31] | MIC [32] | MIC [35] | MIC [36] | MIC [38] | MIC [39] | MIC [40] | MIC [42] | MIC [43] | MIC [44] | MIC [45] | MIC [47] | MIC [49]
125 µM: MIC [5] | MIC [12] | MIC [23] | MIC [37]
0.5 µM: MIC [16] | MIC [27] | MIC [48]
> 30 µM: IC50 [7] | IC50 [33] | IC50 [34] | IC50 [50]
4 µM: MIC [15]
134%: viability at 48 h, 30 µM [29]
74%: viability at 48 h, 30 µM [2]
115%: viability at 48 h, 30 µM [28]
16 µM: MIC [22]
500 µM: MIC [17] | MIC [51]
8 µM: MIC [46]
> 60: selectivity ratio [41]
2 µM: MIC [19]
1 µM: MIC [14] | MIC [21] | MIC [30]
85%: viability at 48 h, 30 µM [4]

O=[N+]([O-])c1cc(-c2nnc(SCc3ccc(Cl)c(Cl)c3)o2)cc([N+](=O)[O-])c1
126%: viability at 48 h, 30 µM [2]
0.03 µM: MIC [14] | MIC [15] | MIC [16] | MIC [19] | MIC [21] | MIC [27] | MIC [30] | MIC [48]
16 µM: MIC [46]
32 µM: MIC [22]
153%: viability at 48 h, 30 µM [28]
125%: viability at 48 h, 30 µM [29]
91%: viability at 48 h, 30 µM [4]
> 30 µM: IC50 [7] | IC50 [33] | IC50 [34] | IC50 [50]
> 125 µM: MIC [1] | MIC [3] | MIC [5] | MIC [6] | MIC [8] | MIC [9] | MIC [10] | MIC [11] | MIC [12] | MIC [13] | MIC [17] | MIC [18] | MIC [20] | MIC [23] | MIC [24] | MIC [25] | MIC [26] | MIC [31] | MIC [32] | MIC [35] | MIC [36] | MIC [37] | MIC [38] | MIC [39] | MIC [40] | MIC [42] | MIC [43] | MIC [44] | MIC [45] | MIC [47] | MIC [49] | MIC [51]
> 1000: selectivity ratio [41]

Source: ChEMBL document CHEMBL4002566, “S-substituted 3,5-dinitrophenyl 1,3,4-oxadiazole-2-thiols and tetrazole-5-thiols as highly efficient antitubercular agents” (Eur J Med Chem, 2017)
